Values belong to the substance of their own block, whether it stands above or below them. Where no end group is shown, it is not given here. [ ]: non-standard residue; d: D form. The star is where a group is joined. C13 = acyl group coded C13, not further defined; C15 = acyl group coded C15, not further defined; C17 = acyl group coded C17, not further defined; Palmitoyl = CCCCCCCCCCCCCCCC(=O)*; pS = N[C@@H](COP(=O)(O)O)C(=O)O; K(dye2) = not defined here; OOO = not defined here
Key:
protein kinase A = molecular target: T1, protein kinase A (Bos taurus, UniProt P00517); assay: Detection of protein kinase activity, fluorescence increase (Examples 4B, 5B, 6B); assay type: biochemical; details: for time to maximum fluorescence: after addition of ATP (compounds 7, 8) or enzyme (compound 9); for fold increase in fluorescence: maximum vs starting fluorescence; for maximum fluorescence after start of the kinase reaction / fluorescence before start of the kinase reaction: substrate 1 μM; for maximum fluorescence after start of the kinase reaction: ATP 0.5 mM, protein kinase A 35 or 7 units; for fluorescence before start of the kinase reaction: Tris pH 8.1 20 mM, MgCl2 1 mM, 100 μL
T1 construct: purchased Promega (Madison, Wis.)
Procedure: Fluorescence data were collected on a Perkin-Elmer LS-50B luminescence spectrometer. […] ATP was added to a final concentration of 0.5 mM and the fluorescence monitored, reaching a maximum of 180 fluorescence units after 6 minutes, or a 5-fold increase.
Fluorescence data were collected on a Perkin-Elmer LS-50B luminescence spectrometer. […] ATP was added to a final concentration of 0.5 mM and the fluorescence monitored, reaching a maximum of 493 fluorescence units after 5 minutes, or a 3.5-fold increase.
Fluorescence data were collected on a Perkin-Elmer LS-50B luminescence spectrometer. […] Protein kinase A (7 Units) was added and the fluorescence monitored, reaching a maximum of 420 fluorescence units after 3 minutes, or an 8-fold increase.

PKC = assay: Phosphorylation assay of linker substrates (Table 3), PKC; assay type: biochemical; details: substrate conc 4 or 6 uM (column Conc)
Procedure: Protein kinase C reaction mixture aliquots (9 μL each) containing 2 μL 5× buffer (composed of 100 mM Tris, pH 8.1+25 mM MgCl2, and 0.5% v/v β-mercaptoethanol) 1 μL Upstate Lipid Activator, 0.05 μL Promega Protein Kinase C, 5.55 μL deionized water, and 0.4 μL substrate were added to wells of the 384 well plate. The reactions were initiated by the addition of 1 μL of Sigma-Aldrich ATP into each well.

PKA = molecular target: T2, PKA (Bos taurus, UniProt P00517); assay: Phosphorylation assay of linker substrates (Table 3), PKA; assay type: biochemical; details: substrate conc 8 uM
T2 construct: purchased Promega (Madison, Wis.)

Akt = Akt (Homo sapiens, UniProt P31749); assay: Phosphorylation assay of linker substrates (Table 3), Akt; assay type: biochemical; details: substrate conc 8 uM
Src, lyn, fyn = assay: Phosphorylation assay of linker substrates (Table 3), Src, lyn, fyn; assay type: biochemical; details: substrate conc 8 uM
MAPKAP2 = MAPKAP2 (Homo sapiens, UniProt P49137); assay: Phosphorylation assay of linker substrates (Table 3), MAPKAP2; assay type: biochemical; details: substrate conc 8 uM
MAPK = assay: Phosphorylation assay of linker substrates (Table 3), MAPK; assay type: biochemical; details: substrate conc 16 uM
[1] = molecular target: T3, pp60^c-src-related protein tyrosine kinase (Homo sapiens, UniProt P12931); assay: Detection of pp60c-src-related protein tyrosine kinase (Example 10B); assay type: biochemical; details: substrate 2.5 μM, 5 μL reaction volume, ATP 50 μM
T3 construct: purchased Upstate, Inc. (Lake Placid, N.Y.) 14-326
Procedure: Example 10 describes an assay for pp60^c-src-related protein tyrosine kinase. […] Enzyme reactions were performed in triplicate for a single substrate concentration, and two no-enzyme controls were also performed.
Five wells of a Corning 384-well plate, black with a non-binding surface and low volume wells (cat. No. 3676) (Corning, Inc., Acton, Mass.) were used. Each well contained 5 μL of a solution containing compound 9 (2.5 μM), MgCl2 (1 mM), Tris buffer, pH 8.1 (20 mM) and src, active (1 unit, cat. No. 14-326). The kinase reaction was initiated in three of the wells by the addition of 1.25 μL of ATP (200 μM) to a final concentration of 50 μM.

[2] = molecular target: E. coli alkaline phosphatase (Escherichia coli, UniProt P00634); assay: Detection of phosphatase activity (Example 2B); assay type: biochemical; details: substrate 20 μM, Tris HCl pH 9, MgCl2 1 mM, 0.5 units enzyme
Procedure: Phosphatase reactions were performed in a 100 μL reaction mixture containing compound 2 (20 μM), Tris HCl buffer (50 mM) at pH 9, and MgCl2 (1 mM). Reactions were initiated by adding 0.5 units of E. coli alkaline phosphatase in 1 to 5 μL. The fluorescence was monitored on a Perkin-Elmer LS-50B luminescence spectrometer with excitation at 480 nm and emission at 525 and slit widths at 5 nm.

[3] = system: T4, compound 1, palmitoyl-FAM-S(OPO3^2-)LRRRRFSK(Ac)G-amide
T4 sequence: SLRRRRFSKG

[4] = system: CCCCCCCCCCCCCCCC(=O)NCc1ccc(C(=O)NCc2c(O)ccc3c2Oc2cc(O)ccc2C32OC(=O)c3cc(C(=O)N[C@@H](COP(=O)(O)O)C(=O)N[C@@H](CC(C)C)C(=O)N[C@@H](CCCNC(=N)N)C(=O)N[C@@H](CCCNC(=N)N)C(=O)N[C@@H](CCCNC(=N)N)C(=O)N[C@@H](CCCNC(=N)N)C(=O)N[C@@H](Cc4ccccc4)C(=O)N[C@@H](CO)C(=O)N[C@@H](CCCCNC(C)=O)C(=O)NCC(N)=O)ccc32)cc1; assay: Protein kinase A detection, double reciprocal plot of initial velocities (Example 1B); assay type: biochemical; details: other: substrate 0.15, 0.3, 0.6 μM, Tris pH 8.5, Mg-ATP 1 mM, cAMP 1 μM, catalytic subunit 2 units
Procedure: (1 μM), and different concentrations of compound 1 (0.15 μM, 0.3 μM, and 0.6 μM), to which the catalytic subunit of protein kinase A (2 units) was then added. Fluorescence was monitored on a Perkin-Elmer LS-50B luminescence spectrometer with 500 nm excitation and emission at 530 nm, and slit width at 5 nm.

Sequence of Akt (P31749 whole entry): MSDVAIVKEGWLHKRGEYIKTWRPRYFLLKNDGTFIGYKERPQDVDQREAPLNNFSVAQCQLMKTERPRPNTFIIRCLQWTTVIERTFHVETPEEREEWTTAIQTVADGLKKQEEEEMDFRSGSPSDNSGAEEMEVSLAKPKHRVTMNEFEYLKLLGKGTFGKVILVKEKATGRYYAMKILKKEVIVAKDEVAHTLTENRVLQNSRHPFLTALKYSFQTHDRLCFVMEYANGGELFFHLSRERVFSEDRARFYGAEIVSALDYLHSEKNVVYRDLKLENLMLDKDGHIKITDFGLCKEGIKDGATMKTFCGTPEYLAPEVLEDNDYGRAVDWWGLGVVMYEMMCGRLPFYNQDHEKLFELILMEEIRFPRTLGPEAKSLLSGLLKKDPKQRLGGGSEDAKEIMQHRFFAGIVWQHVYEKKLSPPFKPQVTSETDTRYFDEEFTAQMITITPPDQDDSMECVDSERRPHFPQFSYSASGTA
Sequence of MAPKAP2 (P49137 whole entry): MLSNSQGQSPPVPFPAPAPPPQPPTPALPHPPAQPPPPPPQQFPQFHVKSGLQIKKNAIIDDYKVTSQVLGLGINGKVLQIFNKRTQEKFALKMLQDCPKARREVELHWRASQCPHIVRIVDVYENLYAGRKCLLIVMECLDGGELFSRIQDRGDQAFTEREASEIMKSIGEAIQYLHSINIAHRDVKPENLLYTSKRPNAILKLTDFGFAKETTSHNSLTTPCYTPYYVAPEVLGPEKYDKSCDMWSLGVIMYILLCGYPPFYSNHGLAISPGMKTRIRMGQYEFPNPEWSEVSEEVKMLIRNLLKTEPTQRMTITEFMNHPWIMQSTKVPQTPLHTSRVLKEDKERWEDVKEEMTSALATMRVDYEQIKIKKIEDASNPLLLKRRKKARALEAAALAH
Sequence of E. coli alkaline phosphatase (P00634 22-471): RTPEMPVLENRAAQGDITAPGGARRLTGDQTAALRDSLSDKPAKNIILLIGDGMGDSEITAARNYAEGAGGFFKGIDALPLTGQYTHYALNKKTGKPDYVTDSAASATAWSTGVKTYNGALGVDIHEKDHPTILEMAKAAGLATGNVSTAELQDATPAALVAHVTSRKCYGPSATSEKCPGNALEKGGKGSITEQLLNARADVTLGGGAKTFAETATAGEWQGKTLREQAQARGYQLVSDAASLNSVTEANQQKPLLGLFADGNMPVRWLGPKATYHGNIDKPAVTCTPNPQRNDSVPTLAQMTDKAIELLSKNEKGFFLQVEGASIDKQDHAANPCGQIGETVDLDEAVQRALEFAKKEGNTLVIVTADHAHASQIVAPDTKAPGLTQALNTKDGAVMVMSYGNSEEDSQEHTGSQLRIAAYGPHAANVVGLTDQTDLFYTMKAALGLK

Substance: (5-carboxy-2,7-dipyridyl-sulfofluorescein)-K-(N-perfluoro-octanoyl-proline)-LRRASLG-amide [Compound 8]
- time to maximum fluorescence (protein kinase A): 5 min
- fold increase in fluorescence (protein kinase A): 3.5 fold
- maximum fluorescence after start of the kinase reaction (protein kinase A): 493 fluorescence units
- fluorescence before start of the kinase reaction (protein kinase A): 140 fluorescence units

Substance: (N-palmitoyl)-Lys(N-5-carboxy-2,′7′-dipyridyl-sulfofluorescein)-OOO-RREGSFR-amide (RREGSFR-NH2; not fully specified (N-terminus); printed as C16-OOOK(dye2)-RREGSFR-NH2) [Compound 10]
- Fold increase (PKC): 4.5×
- RFUs at 10 uL (final) (PKC): 3000 RFUs
- RFUs at 10 uL (initial) (PKC): 650 RFUs

Substance: C13-K(dye2)-LRRASLG-NH2 ({C13-K(dye2)}-LRRASLG-NH2; reading uncertain; also: printed as C13-K(dye2)-LRRASLG-NH2) [PKA substrate; dye2 = 5-carboxy-2′,7′-dipyridyl-sulfonefluorescein]
- Fold increase (PKA): 5×
- RFUs at 10 uL (final) (PKA): 5000 RFUs
- RFUs at 10 uL (initial) (PKA): 1000 RFUs

- Fold increase (PKA): 5×
- RFUs at 10 uL (final) (PKA): 5000 RFUs
- RFUs at 10 uL (initial) (PKA): 1000 RFUs
Substance: C13-OOOK(dye2)-LRRASLG-NH2 (not fully specified (N-terminus); printed as C13-OOOK(dye2)-LRRASLG-NH2) [PKA substrate; O = 2-aminoethoxy-2-ethoxyacetyl linker]

- Fold increase (Akt): 4×
- RFUs at 10 uL (final) (Akt): 7500 RFUs
- RFUs at 10 uL (initial) (Akt): 1500 RFUs
Substance: C15-OOOK(dye2)RPRTSSF-NH2 ({C15-OOO-K(dye2)}-RPRTSSF-NH2; reading uncertain; also: printed as C15-OOOK(dye2)RPRTSSF-NH2) [Akt substrate]

Substance: C16-OOOK(dye2)RIGEGTYGVVRR-NH2 ({Palmitoyl-OOO-K(dye2)}-RIGEGTYGVVRR-NH2; reading uncertain; also: printed as C16-OOOK(dye2)RIGEGTYGVVRR-NH2) [Src, lyn, fyn substrate]
- Fold increase (Src, lyn, fyn): 6.5×
- RFUs at 10 uL (final) (Src, lyn, fyn): 6500 RFUs
- RFUs at 10 uL (initial) (Src, lyn, fyn): 1000 RFUs

- Fold increase (MAPKAP2): 4×
- RFUs at 10 uL (final) (MAPKAP2): 3200 RFUs
- RFUs at 10 uL (initial) (MAPKAP2): 800 RFUs
Substance: C16-OOOK(dye2)RLNRTLSV-NH2 ({Palmitoyl-OOO-K(dye2)}-RLNRTLSV-NH2; reading uncertain; also: printed as C16-OOOK(dye2)RLNRTLSV-NH2) [MAPKAP2 substrate]

Substance: C17-OOOK(dye2)PRTPGGR-NH2 ({C17-OOO-K(dye2)}-PRTPGGR-NH2; reading uncertain; also: printed as C17-OOOK(dye2)PRTPGGR-NH2) [MAPK substrate]
- Fold increase (MAPK): 5×
- RFUs at 10 uL (final) (MAPK): 5700 RFUs
- RFUs at 10 uL (initial) (MAPK): 1100 RFUs

Substance: C17-OOOK(tet)-RQGSFRA-NH2 ({C17-OOO-K(TET)}-RQGSFRA-NH2; reading uncertain; also: printed as C17-OOOK(tet)-RQGSFRA-NH2) [PKC substrate; tet = 2′,7′,4,7-tetachloro-5-carboxy fluorescein]
- Fold increase (PKC): 7×
- RFUs at 10 uL (final) (PKC): 4900 RFUs
- RFUs at 10 uL (initial) (PKC): 700 RFUs

- time to maximum fluorescence (protein kinase A): 6 min
- fold increase in fluorescence (protein kinase A): 5 fold
- maximum fluorescence after start of the kinase reaction (protein kinase A): 180 fluorescence units
- fluorescence before start of the kinase reaction (protein kinase A): 35 fluorescence units
Substance: N-(1H, 1H,2H,2H-Perfluorodecyl-1-thiol-2-acetyl)-K-(5-carboxysulfofluorescein) LRRASL-G-amide [Compound 7]

- time to maximum fluorescence (protein kinase A): 3 min
- fold increase in fluorescence (protein kinase A): 8 fold
- maximum fluorescence after start of the kinase reaction (protein kinase A): 420 fluorescence units
- fluorescence before start of the kinase reaction (protein kinase A): 50 fluorescence units
Substance: N-AcetylRGRPRTSSFAEG-OOOK(N-5-Carboxysulfo-fluroescein)K(N-Octadecanoyl)-amide [Compound 9]

Substance: N-palmitoyl-Lys(ε-N-5-carboxy-sulfonefluorescein)KVEKIGEGTYGVVKK-amide ({Palmitoyl-K(5-carboxy-sulfonefluorescein)}-KVEKIGEGTYGVVKK-NH2) [Compound 13]
- fluorescent signal on reaction with kinase [1]: a strong fluorescent signal with high signal-to-noise was observed

Substance: palmitoyl-LRRRRFS(OPO3^2−)K(5-FAM)G-amide (Palmitoyl-LRRRRF[pS]-{K(5-FAM)-Gly-NH2}) [Compound 2]
- change in fluorescence over time on reaction with phosphatase [2]: immediate and significant increase in fluorescence over time

Substance: protein kinase A
- Km (double reciprocal plot of initial velocities, fluorescence kinase assay) [3]: a Km value of 0.3 µM

Substance: protein kinase A (Bos taurus)
- Km [4]: 0.3 µM

From patent US20040146959A1, “Fluorescent enzyme assay methods and compositions” (priority 2002, published 2004)
